Results from US9586962B2, “Disubstituted octahydropyrrolo [3,4-C] pyrroles as orexin receptor modulators” (Janssen Pharmaceutica NV, priority 2011, dated 2017).

molecular target: human orexin 2 receptor (Homo sapiens (Human), UniProt O43614); experiment: Human orexin 2 receptor Ca2+ mobilization assay (FLIPR, PFSK cells, orexin B 100 nM); format: cell-based; conditions: modified Cheng-Prusoff correction, read-out: OR 2 Kb
Experimental: Human Orexin 2 Receptor Ca^2+ Mobilization Assay
Cells were seeded on to 96-well Packard viewplates at a density of 50,000 cells/well and incubated overnight at 37° C., 5% CO2. The cells were dye-loaded with 4 μM Ca^2+ dye Fluo-3AM in serum-free DMEM/F-12 with 2.5 mM probenecid and incubated at 37° C., 5% CO2 for one hour. Cells were pre-incubated with compounds (diluted in DMEM/F-12) for 30 minutes before agonist (orexin B, 100 nM) stimulation. Ligand-induced Ca^2+ release was measured using a Fluorometric Imaging Plate Reader (FLIPR, Molecular Devices, Sunnyvale, Calif.). Functional responses were measured as peak fluorescence intensity minus basal. The concentration of agonist that produced a half-maximal response is represented by the EC50 value. Antagonistic potency values were converted to apparent pKB values using a modified Cheng-Prusoff correction. Apparent pKB=−log IC50/1+[conc agonist/EC50]. Data are expressed as mean±S.E.M, the designation of NT means not tested.

human orexin 2 receptor, sequence (O43614 whole entry): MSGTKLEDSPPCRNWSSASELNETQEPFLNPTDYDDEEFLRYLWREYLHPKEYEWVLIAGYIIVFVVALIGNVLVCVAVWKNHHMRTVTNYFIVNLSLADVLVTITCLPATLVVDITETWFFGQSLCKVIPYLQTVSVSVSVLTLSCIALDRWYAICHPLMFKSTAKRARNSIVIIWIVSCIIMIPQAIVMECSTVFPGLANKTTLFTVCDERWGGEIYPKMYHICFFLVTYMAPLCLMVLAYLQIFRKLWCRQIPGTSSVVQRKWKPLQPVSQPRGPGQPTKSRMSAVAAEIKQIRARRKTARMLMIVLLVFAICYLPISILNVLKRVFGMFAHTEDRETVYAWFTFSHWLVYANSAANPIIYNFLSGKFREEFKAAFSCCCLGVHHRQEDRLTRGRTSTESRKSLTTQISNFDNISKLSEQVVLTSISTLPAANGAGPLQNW

| SMILES | Kb [nM] |
| --- | --- |
| COc1cc(OC)nc(N2CC3CN(C(=O)c4ccccc4-c4cccs4)CC3C2)n1 (centres unmarked) [Example 138, 2-(4,6-Dimethoxypyrimidin-2-yl)-5-[(2-thiophen-2-ylphenyl)carbonyl]octahydro pyrrolo[3,4-c]pyrrole] | 40 |
| O=C(c1ccccc1-c1cccs1)N1CC2CN(c3nc4ccccc4o3)CC2C1 (centres unmarked) [Example 139, 2-{5-[(2-Thiophen-2-ylphenyl)carbonyl]hexahydropyrrolo[3,4-c]pyrrol-2(1H)-yl}-1,3-benzoxazole] | 63 |
| COc1ccnc(N2CC3CN(C(=O)c4cc(F)ccc4-c4ncccn4)CC3C2)n1 (centres unmarked) [Example 150, 2-[(5-Fluoro-2-pyrimidin-2-ylphenyl)carbonyl]-5-(4-methoxypyrimidin-2-yl)octahydropyrrolo[3,4-c]pyrrole] | 40 |
| O=C(c1ccccc1-n1nccn1)N1CC2CN(c3nccc(C(F)(F)F)n3)CC2C1 (centres unmarked) [Example 153, 2-{[2-(2H-1,2,3-Triazol-2-yl)phenyl]carbonyl}-5-[4-(trifluoromethyl)pyrimidin-2-yl]octahydropyrrolo[3,4-c]pyrrole] | 40 |
| COc1ccnc(N2CC3CN(C(=O)c4ccccc4-n4nccn4)CC3C2)n1 (centres unmarked) [Example 156, 2-(4-Methoxypyrimidin-2-yl)-5-{[2-(2H-1,2,3-triazol-2-yl)phenyl]carbonyl}octa hydropyrrolo[3,4-c]pyrrole] | 16 |
| COc1ccnc(N2CC3CN(C(=O)c4ccc(F)cc4-n4nccn4)CC3C2)n1 (centres unmarked) [Example 159, 2-{[4-Fluoro-2-(2H-1,2,3-triazol-2-yl)phenyl]carbonyl}-5-(4-methoxypyrimidin-2-yl)octahydropyrrolo[3,4-c]pyrrole] | 8 |
| O=C(c1ccccc1-c1ccccc1)N1CC2CN(c3nccc(-c4ccccc4)n3)CC2C1 (centres unmarked) [Example 164, 2-(Biphenyl-2-ylcarbonyl)-5-(4-phenylpyrimidin-2-yl)octahydropyrrolo[3,4-c]pyrrole] | 200 |
| COc1ccc(C(=O)N2CC3CN(c4nccc(-c5ccccc5)n4)CC3C2)c(OC)c1 (centres unmarked) [Example 167, 2-[(2,4-Dimethoxyphenyl)carbonyl]-5-(4-phenylpyrimidin-2-yl)octahydropyrrolo[3,4-c]pyrrole] | 631 |
| O=C(c1ccccc1-c1ccccc1)N1CC2CN(c3cnc4ccccc4n3)CC2C1 (centres unmarked) [Example 168, 2-[5-(Biphenyl-2-ylcarbonyl)hexahydropyrrolo[3,4-c]pyrrol-2(1H)-yl]quinoxaline] | 126 |
| O=C(c1ccccc1-c1ccccc1)N1CC2CN(c3nc4ccc(F)cc4s3)CC2C1 (centres unmarked) [Example 176, 2-[5-(Biphenyl-2-ylcarbonyl)hexahydropyrrolo[3,4-c]pyrrol-2(1H)-yl]-6-fluoro-1,3-benzothiazole] | 158 |
| Cc1cc(N2CC3CN(C(=O)c4ccccc4-c4ccccc4)CC3C2)nc2ccccc12 (centres unmarked) [Example 178, 2-[5-(Biphenyl-2-ylcarbonyl)hexahydropyrrolo[3,4-c]pyrrol-2(1H)-yl]-4-methylquinoline] | 126 |
| Cc1cncc(N2CC3CN(C(=O)c4ccccc4-n4nccn4)CC3C2)n1 (centres unmarked) [Example 211, [5-(6-Methyl-pyrazin-2-yl)-hexahydro-pyrrolo[3,4-c]pyrrol-2-yl]-(2-[1,2,3]triazol-2-yl-phenyl)-methanone] | 25 |
| Cc1cnc(C)c(N2CC3CN(C(=O)c4cc(F)ccc4-c4ncccn4)CC3C2)n1 (centres unmarked) [Example 212, [5-(3,6-Dimethyl-pyrazin-2-yl)-hexahydro-pyrrolo[3,4-c]pyrrol-2-yl]-(5-fluoro-2-pyrimidin-2-yl-phenyl)-methanone] | 32 |
| Cc1cnc(C)c(N2CC3CN(C(=O)c4ccccc4-c4ncn[nH]4)CC3C2)n1 (centres unmarked) [Example 213, [5-(3,6-Dimethyl-pyrazin-2-yl)-hexahydro-pyrrolo[3,4-c]pyrrol-2-yl]-[2-(2H-[1,2,4]triazol-3-yl)-phenyl]-methanone] | 50 |

Now from value to compound:

| Kb [nM] | SMILES |
| --- | --- |
| 50 | Cc1ccnc(N2CC3CN(C(=O)c4ccccc4-c4cccs4)CC3C2)c1 (centres unmarked) [Example 136, 2-(4-Methylpyridin-2-yl)-5-[(2-thiophen-2-ylphenyl)carbonyl]octahydropyrrolo[3,4-c]pyrrole] |
| 25 | COc1cccc(N2CC3CN(C(=O)c4ccccc4-c4cccs4)CC3C2)n1 (centres unmarked) [Example 137, 2-(6-Methoxypyridin-2-yl)-5-[(2-thiophen-2-ylphenyl)carbonyl]octahydro pyrrolo[3,4-c]pyrrole] |
| 79 | O=C(c1ccccc1-n1nccn1)N1CC2CN(c3nccc(-c4cccs4)n3)CC2C1 (centres unmarked) [Example 143, 2-(4-Thiophen-2-ylpyrimidin-2-yl)-5-{[2-(2H-1,2,3-triazol-2-yl)phenyl]carbonyl}octahydropyrrolo[3,4-c]pyrrole] |
| 63 | O=C(c1ccccc1-n1nccn1)N1CC2CN(c3nc4ccccc4o3)CC2C1 (centres unmarked) [Example 144, 2-[5-{[2-(2H-1,2,3-Triazol-2-yl)phenyl]carbonyl}hexahydropyrrolo[3,4-c]pyrrol-2(1H)-yl]-1,3-benzoxazole] |
| 32 | CCOc1ccc2ccccc2c1C(=O)N1CC2CN(c3cnc4ccccc4n3)CC2C1 (centres unmarked) [Example 145, 2-{5-[(2-Ethoxynaphthalen-1-yl)carbonyl]hexahydropyrrolo[3,4-c]pyrrol-2(1H)-yl}quinoxaline] |
| 16 | O=C(c1cc(F)ccc1-c1ncccn1)N1CC2CN(c3cnc4ccccc4n3)CC2C1 (centres unmarked) [Example 146, 2-{5-[(5-Fluoro-2-pyrimidin-2-ylphenyl)carbonyl]hexahydropyrrolo[3,4-c]pyrrol-2(1H)-yl}quinoxaline] |
| 63 | CCOc1cccc(N2CC3CN(C(=O)c4ccccc4-n4nccn4)CC3C2)n1 (centres unmarked) [Example 147, 2-(6-Ethoxypyridin-2-yl)-5-{[2-(2H-1,2,3-triazol-2-yl)phenyl]carbonyl}octahydro pyrrolo[3,4-c]pyrrole] |
| 16 | Cc1cnc(C)c(N2CC3CN(C(=O)c4ccccc4-n4nccn4)CC3C2)n1 (centres unmarked) [Example 155, 2-(3,6-Dimethylpyrazin-2-yl)-5-{[2-(2H-1,2,3-triazol-2-yl)phenyl]carbonyl}octa hydropyrrolo[3,4-c]pyrrole] |
| 8 | Cc1cncc(N2CC3CN(C(=O)c4ccc(F)cc4-n4nccn4)CC3C2)n1 (centres unmarked) [Example 158, 2-{[4-Fluoro-2-(2H-1,2,3-triazol-2-yl)phenyl]carbonyl}-5-(6-methylpyrazin-2-yl)octahydropyrrolo[3,4-c]pyrrole] |
| 20 | COc1cc(OC)nc(N2CC3CN(C(=O)c4ccc(F)cc4-n4nccn4)CC3C2)n1 (centres unmarked) [Example 160, 2-(4,6-Dimethoxypyrimidin-2-yl)-5-{[4-fluoro-2-(2H-1,2,3-triazol-2-yl)phenyl]carbonyl}octahydropyrrolo[3,4-c]pyrrole] |
| 501 | COc1ccc(C(=O)N2CC3CN(c4nc5ccc(Cl)cc5s4)CC3C2)c(OC)c1 (centres unmarked) [Example 163, 6-Chloro-2-{5-[(2,4-dimethoxyphenyl)carbonyl]hexahydropyrrolo[3,4-c]pyrrol-2(1H)-yl}-1,3-benzothiazole] |
| 20 | Cc1cc(N2CC3CN(C(=O)c4cc(F)ccc4-c4ncccn4)CC3C2)nc(C(F)(F)F)n1 (centres unmarked) [Example 204, (5-Fluoro-2-pyrimidin-2-yl-phenyl)-[5-(6-methyl-2-trifluoromethyl-pyrimidin-4-yl)-hexahydro-pyrrolo[3,4-c]pyrrol-2-yl]-methanone] |
